Experiments:
Format in all cases: physicochemical
[1] = Study Number 1: in-use stability diluted in normal saline in PVC containers (HPLC purity and concentration, 24 hour); conditions: for Time stable at room temperature: 0.012-0.3 mg/mL diluted in normal saline in PVC containers
Procedure: The purity and concentration of Compound 1 as measured by HPLC were determined during a 24 hour test period while the drug product was held in its diluted state in normal saline in a polyvinyl chloride (PVC) clinical containers over a range of concentrations in 500 mL bags. The parameters of the study were: • Compound 1 dose: 6 mg and 150 mg in 500 mL • Concentration range: 0.012-0.3 mg/mL Compound 1 • Container size: 500 mL • Diluent: 0.9% normal saline, USP • Stability time points: 0, 4, 8, 24 hours • Storage condition: room temperature (15-25° C.) • Container composition: polyvinyl chloride • Light conditions: ambient light vs amber IV bag covers to limit UV exposure • Reconstitution: 80% (v/v) ethanol for reconstitution of the lyophilate, followed by dilution into normal saline.

[2] = Study Number 2: in-use stability in PVC and polyolefin containers, 4 hour hold plus 1 hour infusion (HPLC)
Procedure: (§1) The purity and concentration of Compound 1 as measured by HPLC were determined during a 5 hour test period while the drug product was held in polyvinyl chloride (PVC) and non-PVC, non-DEHP (polyolefin) clinical containers over a range of concentrations in 500 mL containers. Admixed containers were delivered with an […] infusion set by holding the infusion bag with diluted test article for 4 hours prior to a 1 hour infusion to assess in use stability over a total of 5 hours to mimic clinical practice. The parameters of the study were: • Compound 1 dose: 6 mg and 150 mg in 500 mL • Concentration range: 0.012-0.3 mg/mL Compound 1 • Container size: 500 mL • Diluent: 0.9% normal saline, USP • Stability time points: 0 hours, 4 hours (pre-infusion), 5 hours (post-1 hour infusion) • Storage condition: room temperature (15-25° C.) • Container composition: polyvinyl chloride and non-PVC, non-DEHP (polyolefin) • Light conditions: ambient light vs amber IV bag covers to limit UV exposure • Reconstitution: 80% (v/v) ethanol for reconstitution of the lyophilate, followed by dilution into normal saline.

[3] = Study Number 3: in-use stability in polyolefin containers after 50% ethanol reconstitution, 4 hour hold plus 1 hour infusion (HPLC)
Procedure: as §1, with “a” for “polyvinyl chloride (PVC) and non-PVC,”, “120” for “150”, “0.012-0.24” for “0.012-0.3”, “composition:” for “composition: polyvinyl chloride and non-PVC,”, “conditions:” for “conditions: ambient light vs”, “50%” for “80%”

[4] = Holding of compounded sterile filtered pre-lyophilization solutions (precipitation); conditions: for Precipitation in held pre-lyophilization solution: 24 h; for Precipitation post filtration: vials stored at 17° C., 20° C., 22° C., or 25° C. for 24 h
Procedure: Experiments were conducted to study the compounding and holding of pre-lyophilization solutions comprising Compound 1.
Vials of the compounded sterile filtered pre-lyophilization solutions were held at 17° C., 20° C., 22° C., and 25° C.

[5] = Compounding (dissolution) of pre-lyophilization solutions comprising Compound 1
Procedure: Third, Compound 1 was dissolved in the solution at 30° C. After dissolution, the solution was cooled to room temperature (20-22° C.). Experiments were conducted to study the compounding and holding of pre-lyophilization solutions comprising Compound 1.

Appearance of diluted samples ([1]; 0.012-0.3 mg/mL in normal saline, PVC, room temperature, through 24 hours): remained clear
Time stable at room temperature ([1]; amber covered shroud protected from light): up to 24 hours
Time stable at room temperature ([1]; ambient light): up to 8 hours
Appearance of diluted samples ([2]; 0.012-0.3 mg/mL in normal saline, PVC and polyolefin, room temperature, through 5 hours): remained clear
Time stable at room temperature ([2]; followed by a 1 hour infusion, amber shroud, polyolefin containers, low-sorb tubing, 0.012-0.3 mg/mL in normal saline): up to 4 hours
Appearance of diluted samples ([3]; 0.012-0.24 mg/mL in normal saline, polyolefin, room temperature, through 5 hours, 50% ethanol reconstitution): remained clear
Impurity testing (HPLC) ([3]; all time points (0, 4, 5 hours), polyolefin, amber cover): no impurities at any time point
Time stable at room temperature ([3]; followed by a 1 hour infusion, amber shroud, polyolefin containers, PVC or low-sorb tubing, 0.012-0.24 mg/mL in normal saline): up to 4 hours
Precipitation in held pre-lyophilization solution ([4]; 17° C., 10 mg/mL): remain free of precipitation
Precipitation in held pre-lyophilization solution ([4]; 17° C., 12.5 mg/mL): remain free of precipitation
Time to precipitation of pre-lyophilization solution ([4]; 17° C., 15 mg/mL): occurs within 1 h at 15 mg/mL.
Precipitation post filtration (observed or not) ([4]; Exp 4: 15 mg/mL, sterile filtered, vial held at 17° C., at 1 h): observed in vial held
Precipitation post filtration ([4]; Exp 5: 12.5 mg/mL): No precipitation
Precipitation post filtration ([4]; Exp 6: 10 mg/mL): No precipitation
Dissolution time ([5]; Exp 2: excipients and Compound 1 15 mg/mL at 25° C., single vessel): >6.5 h (estimated at
Dissolution time (estimated) ([5]; Exp 2: excipients and Compound 1 15 mg/mL at 25° C., single vessel, estimated): ~9.5 h
Dissolution of Compound 1 in ethanol and t-butanol (organic dissolution) ([5]; Exp 3: 15 mg/mL, two vessels (separate aqueous and organic), 25° C. stepped up to 35° C.): remains as solid even at
Dissolution time ([5]; Exp 3: 15 mg/mL, two vessels, after mixing aqueous and organic portions, held at the temperature of the organic phase): 1.25 h
Dissolution time ([5]; Exp 4: excipients and Compound 1 15 mg/mL at 30° C., single vessel): Dissolution time: 5 h
Dissolution time ([5]; Exp 5: excipients and Compound 1 12.5 mg/mL at 30° C., single vessel): 3.66 h
Dissolution time ([5]; Exp 6: excipients and Compound 1 10 mg/mL at 30° C., single vessel): 1.75 h
SMILES: CC(=O)N[C@@H](Cc1c[nH]c2ccccc12)C(=O)N[C@@H](CCC(=O)C=[N+]=[N-])C(=O)OC(C)C [Compound 1, (S)-isopropyl 2-((S)-2-acetamido-3-(1H-indol-3-yl)propanamido)-6-diazo-5-oxohexanoate]
Impurity testing (HPLC) ([1]; ambient light vs amber cover, 0-24 hours, PVC container): greater impurities under ambient light with an increase in impurities observed over the course of the experiment
Impurity testing (HPLC) ([2]; ambient light vs amber cover, 4 hours and 1 hour post infusion compared to baseline): greater impurities under ambient light with an increase in impurities observed over the course of the experiment
